This experiment concerns the target T1, human V1aR (Homo sapiens, UniProt P37288).
T1 construct: expressed in transfected cells
Put plainly: Agonist activity at vasopressin V1a receptors, cell-based FLIPR calcium assay. To be noted: for Emax: read-out: Efficacy Avg. (%). In a few lines:
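HEK Flp-In cells stably expressing human V1aR were loaded with Calcium 4 dye plus 2.5 mM probenecid for 1 h at 37 °C, then given half-log compound concentrations (final 0.1% DMSO) on FLIPR Tetra.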

Starred links: 1 amine or outer side, 2 acyl side, 3 side chain; linkers in the order of their positions; H or OH if unused. Positions of bridges follow the written chain, without caps; N, C: chain ends. Non-standard residues stand in square brackets, D forms with d. Residues, ends and D or L forms follow the SMILES beside them. Chains are numbered I, II in the order given. *: point of attachment. Orn((CH2)6NH2) = O=C([C@H](CCCNCCCCCCN[*:3])N[*:1])[*:2]; d(isoGln) = NC(=O)[C@@H](CCC(=O)[*:2])N[*:1]; isoGln = NC(=O)[C@H](CCC(=O)[*:2])N[*:1]; d(εLys) = N[C@H](CCCCN[*:1])C(=O)[*:2]; X1 = N[C@@H](CCC(=O)[*:2])C(=O)[*:1]; εLys = N[C@@H](CCCCN[*:1])C(=O)[*:2]; Aad = N[C@@H](CCCC(=O)O)C(=O)O; Cit = NC(=O)NCCC[C@H](N)C(=O)O; Suc = O=C(CCC(=O)[*:2])[*:1]; Dab = NCC[C@H](N)C(=O)O; PhAc = O=C(Cc1ccccc1)*

T1 sequence (P37288 whole entry): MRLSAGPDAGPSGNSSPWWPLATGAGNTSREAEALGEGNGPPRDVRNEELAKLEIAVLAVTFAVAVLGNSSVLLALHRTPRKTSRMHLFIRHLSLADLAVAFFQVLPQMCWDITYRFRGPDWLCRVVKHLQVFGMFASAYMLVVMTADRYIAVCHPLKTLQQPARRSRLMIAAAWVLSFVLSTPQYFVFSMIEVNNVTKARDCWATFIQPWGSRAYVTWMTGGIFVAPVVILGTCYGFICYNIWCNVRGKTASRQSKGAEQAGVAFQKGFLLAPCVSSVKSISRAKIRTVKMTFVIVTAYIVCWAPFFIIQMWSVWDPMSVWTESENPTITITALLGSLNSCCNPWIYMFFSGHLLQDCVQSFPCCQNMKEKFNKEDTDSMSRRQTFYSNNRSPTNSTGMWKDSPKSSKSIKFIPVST

Consider `CC[C@H](C)[C@@H]1NC(=O)[C@H](Cc2ccccc2)NC(=O)[C@@H](N)CSSC[C@@H](C(=O)N2CCC[C@H]2C(=O)N[C@@H](CCCNCCCCCC(=O)NCCCC[C@H](NC(=O)[C@H](CCCNC(=N)N)NC(=O)[C@@H]2CCCN2C(=O)[C@H](CC(C)C)NC(=O)[C@H](CC(N)=O)NC(=O)[C@H](CCC(N)=O)NC(=O)[C@H](Cc2ccccc2)NC(=O)[C@@H](Cc2ccc(OC)cc2)NC(=O)Cc2ccccc2)C(N)=O)C(=O)NCC(N)=O)NC(=O)[C@H](CC(N)=O)NC(=O)[C@H](CCC(N)=O)NC1=O` [Compound 9], for which the EC50 (as a rule, the concentration needed to bring the measured effect to its halfway point) was over 10000 nM and the Emax came out at 34%.

For the compound `CC[C@H](C)[C@@H]1NC(=O)[C@H](Cc2ccccc2)NC(=O)[C@@H](O)CSSC[C@@H](C(=O)N2CCC[C@H]2C(=O)N[C@@H](CCNC(=O)[C@@H](N)CCCCNC(=O)CC[C@H](NC(=O)[C@H](CCCNC(=N)N)NC(=O)[C@@H]2CCCN2C(=O)[C@H](CCCNC(=N)N)NC(=O)[C@H](CC(N)=O)NC(=O)[C@H](CCC(N)=O)NC(=O)[C@H](Cc2ccccc2)NC(=O)[C@@H](Cc2ccc(OC)cc2)NC(=O)Cc2ccccc2)C(N)=O)C(=O)NCC(N)=O)NC(=O)[C@H](CC(N)=O)NC(=O)[C@H](CCC(N)=O)NC1=O` [Compound 31], the EC50 was 0.83 nM and the Emax came out at 63%.

As for `CC[C@H](C)[C@@H]1NC(=O)[C@H](Cc2ccccc2)NC(=O)[C@@H](N)CSSC[C@@H](C(=O)N2CCC[C@H]2C(=O)N[C@@H](CCCNCCCCCNC(=O)CC[C@H](NC(=O)[C@H](CCCNC(=N)N)NC(=O)[C@@H]2CCCN2C(=O)[C@H](CCC(N)=O)NC(=O)[C@H](CC(N)=O)NC(=O)[C@H](CCC(N)=O)NC(=O)[C@H](Cc2ccccc2)NC(=O)[C@@H](Cc2ccc(OC)cc2)NC(=O)Cc2ccccc2)C(N)=O)C(=O)NCC(N)=O)NC(=O)[C@H](CC(N)=O)NC(=O)[C@H](CCC(N)=O)NC1=O` [Compound 14], the EC50 stood at 2.1 nM and the Emax was 37%.

As for `CC[C@H](C)[C@@H]1NC(=O)[C@H](Cc2ccccc2)NC(=O)[C@@H](N)CSSC[C@@H](C(=O)N2CCC[C@H]2C(=O)N[C@@H](CCCNCCCCCCNC(=O)CCCCNC(=O)CC[C@H](NC(=O)[C@H](CCCNC(=N)N)NC(=O)[C@@H]2CCCN2C(=O)[C@H](C)NC(=O)[C@H](CC(N)=O)NC(=O)[C@H](CCC(N)=O)NC(=O)[C@H](Cc2ccccc2)NC(=O)[C@@H](Cc2ccc(OC)cc2)NC(=O)Cc2ccccc2)C(N)=O)C(=O)NCC(N)=O)NC(=O)[C@H](CC(N)=O)NC(=O)[C@H](CCC(N)=O)NC1=O` [Compound 5], the EC50 amounted to 1.3 nM and the Emax turned out to be 28%.

For `CC[C@H](C)[C@@H]1NC(=O)[C@H](Cc2ccccc2)NC(=O)[C@@H](N)CSSC[C@@H](C(=O)N2CCC[C@H]2C(=O)N[C@@H](CCNC(=O)[C@@H](N)CCCCNC(=O)CC[C@H](NC(=O)[C@H](CCCNC(=N)N)NC(=O)[C@@H]2CCCN2C(=O)[C@H](CCCNC(N)=O)NC(=O)[C@H](CC(N)=O)NC(=O)[C@H](CCC(N)=O)NC(=O)[C@H](Cc2ccccc2)NC(=O)[C@@H](Cc2ccc(OC)cc2)NC(=O)Cc2ccccc2)C(N)=O)C(=O)NCC(N)=O)NC(=O)[C@H](CC(N)=O)NC(=O)[C@H](CCCC(N)=O)NC1=O` [Compound 47] (I: H-CFI[Aad](NH2)NCP[Dab]G-NH2 / II: PhAc-[dY](Me)FQN[Cit]PR[isoGln][εLys]; disulfide I:1-I:6 (inferred); amide I:8-II:C (inferred)), the EC50 stood at 1.8 nM and the Emax is 45%.

For `CC[C@H](C)[C@@H]1NC(=O)[C@H](Cc2ccccc2)NC(=O)[C@@H](N)CSSC[C@@H](C(=O)N2CCC[C@H]2C(=O)N[C@@H](CCNC(=O)[C@@H](N)CCCCNC(=O)CC[C@@H](NC(=O)[C@H](CCCNC(=N)N)NC(=O)[C@@H]2CCCN2C(=O)[C@H](CCCNC(N)=O)NC(=O)[C@H](CC(N)=O)NC(=O)[C@H](CCC(N)=O)NC(=O)[C@H](Cc2ccccc2)NC(=O)[C@@H](Cc2ccc(OC)cc2)NC(=O)Cc2ccccc2)C(N)=O)C(=O)NCC(N)=O)NC(=O)[C@H](CC(N)=O)NC(=O)[C@H](CCC(N)=O)NC1=O` [Compound 57] (I: H-CFIQNCP[Dab]G-NH2 / II: PhAc-[dY](Me)FQN[Cit]PR[d(isoGln)][εLys]; disulfide I:1-I:6; amide I:8-II:C), the EC50 turned out to be 1.4 nM and the Emax was found to be 63%.

With `CC[C@H](C)[C@@H]1NC(=O)[C@H](Cc2ccccc2)NC(=O)[C@@H](N)CSSC[C@@H](C(=O)N2CCC[C@H]2C(=O)N[C@@H](CCNC(=O)[C@H](N)CCCCNC(=O)CC[C@H](NC(=O)[C@H](CCCNC(=N)N)NC(=O)[C@@H]2CCCN2C(=O)[C@H](CCC(N)=O)NC(=O)[C@H](CC(N)=O)NC(=O)[C@H](CCC(N)=O)NC(=O)[C@H](Cc2ccccc2)NC(=O)[C@@H](Cc2ccc(OC)cc2)NC(=O)Cc2ccccc2)C(N)=O)C(=O)NCC(N)=O)NC(=O)[C@H](CC(N)=O)NC(=O)[C@H](CCCC(N)=O)NC1=O` [Compound 61] (I: H-CFI[Aad](NH2)NCP[Dab]G-NH2 / II: PhAc-[dY](Me)FQNQPR[isoGln][d(εLys)]; disulfide I:1-I:6; amide I:8-II:C), the EC50 stood at 2.5 nM and the Emax came out at 38%.

For the compound `CC[C@H](C)[C@@H]1NC(=O)[C@H](Cc2ccccc2)NC(=O)[C@@H](N)CSSC[C@@H](C(=O)N2CCC[C@H]2C(=O)N[C@@H](CCCNCCCCCCNC(=O)CCC(=O)NCCCC[C@H](NC(=O)[C@H](CCCNC(=N)N)NC(=O)[C@@H]2CCCN2C(=O)[C@H](CCCNC(=N)N)NC(=O)[C@H](CC(N)=O)NC(=O)[C@H](CCC(N)=O)NC(=O)[C@H](Cc2ccccc2)NC(=O)[C@@H](Cc2ccc(OC)cc2)NC(=O)Cc2ccccc2)C(N)=O)C(=O)NCC(N)=O)NC(=O)[C@H](CC(N)=O)NC(=O)[C@H](CCC(N)=O)NC1=O` [Compound 1] (I: H-CFIQNCP[Orn((CH2)6NH2)]G-NH2 / II: PhAc-[dY](Me)FQNRPRK-NH2; disulfide I:1-I:6; linker I:8-II:8 via Suc), the EC50 came to 1 nM and the Emax was 30%.

For the compound `CC[C@H](C)[C@@H]1NC(=O)[C@H](Cc2ccccc2)NC(=O)[C@@H](N)CSSC[C@@H](C(=O)N2CCC[C@H]2C(=O)N[C@@H](CCNC(=O)[C@@H](N)CCC(=O)NCCCC[C@H](NC(=O)[C@H](CCCNC(=N)N)NC(=O)[C@@H]2CCCN2C(=O)[C@H](C)NC(=O)[C@H](CC(N)=O)NC(=O)[C@H](CCC(N)=O)NC(=O)[C@H](Cc2ccccc2)NC(=O)[C@@H](Cc2ccc(OC)cc2)NC(=O)Cc2ccccc2)C(N)=O)C(=O)NCC(N)=O)NC(=O)[C@H](CC(N)=O)NC(=O)[C@H](CC(N)=O)NC1=O` [Compound 63] (I: H-CFINNCP[Dab]G-NH2 / II: PhAc-[dY](Me)FQNAPRK-NH2; disulfide I:1-I:6; linker I:8-II:8 via X1), the EC50 turned out to be 1.1 nM and the Emax is 36%.

As for `CC[C@H](C)[C@@H]1NC(=O)[C@H](Cc2ccccc2)NC(=O)[C@@H](N)CSSC[C@@H](C(=O)N2CCC[C@H]2C(=O)N[C@@H](CCNC(=O)[C@@H](N)CCC(=O)NCCCC[C@H](NC(=O)[C@H](CCCNC(=N)N)NC(=O)[C@@H]2CCCN2C(=O)[C@H](C)NC(=O)[C@H](CC(N)=O)NC(=O)[C@H](CCC(N)=O)NC(=O)[C@H](Cc2ccccc2)NC(=O)[C@@H](Cc2ccc(OC)cc2)NC(=O)Cc2ccccc2)C(N)=O)C(=O)NCC(N)=O)NC(=O)[C@H](CC(N)=O)NC(=O)[C@H](CCC(N)=O)NC1=O` [Compound 38] (I: H-CFIQNCP[Dab]G-NH2 / II: PhAc-[dY](Me)FQNAPRK-NH2; disulfide I:1-I:6; linker I:8-II:8 via X1), the EC50 came to 1.4 nM and the Emax worked out at 46%.

For `CC[C@H](C)[C@@H]1NC(=O)[C@H](Cc2ccccc2)NC(=O)[C@@H](O)CSSC[C@@H](C(=O)N2CCC[C@H]2C(=O)N[C@@H](CCNC(=O)[C@@H](N)CCCCNC(=O)CC[C@H](NC(=O)[C@H](CCCNC(=N)N)NC(=O)[C@@H]2CCCN2C(=O)[C@H](CCCNC(N)=O)NC(=O)[C@H](CC(N)=O)NC(=O)[C@H](CCC(N)=O)NC(=O)[C@H](Cc2ccccc2)NC(=O)[C@@H](Cc2ccc(OC)cc2)NC(=O)Cc2ccccc2)C(N)=O)C(=O)NCC(N)=O)NC(=O)[C@H](CC(N)=O)NC(=O)[C@H](CCCC(N)=O)NC1=O` [Compound 48], the EC50 is 1.4 nM and the Emax was 67%.

`CC[C@H](C)[C@@H]1NC(=O)[C@H](Cc2ccccc2)NC(=O)[C@@H](N)CSSC[C@@H](C(=O)N2CCC[C@H]2C(=O)N[C@@H](CCNC(=O)[C@@H](N)CCCCNC(=O)CC[C@H](NC(=O)[C@H](CCCNC(=N)N)NC(=O)[C@@H]2CCCN2C(=O)[C@H](C)NC(=O)[C@H](CC(N)=O)NC(=O)[C@H](CCC(N)=O)NC(=O)[C@H](Cc2ccccc2)NC(=O)[C@@H](Cc2ccc(OC)cc2)NC(=O)Cc2ccccc2)C(N)=O)C(=O)NCC(N)=O)NC(=O)[C@H](CC(N)=O)NC(=O)[C@H](CCCC(N)=O)NC1=O` [Compound 50] (I: H-CFI[Aad](NH2)NCP[Dab]G-NH2 / II: PhAc-[dY](Me)FQNAPR[isoGln][εLys]; disulfide I:1-I:6; amide I:8-II:C): the EC50 stood at 0.9 nM and the Emax is 40%.

Take `CC[C@H](C)[C@@H]1NC(=O)[C@H](Cc2ccccc2)NC(=O)[C@@H](N)CSSC[C@@H](C(=O)N2CCC[C@H]2C(=O)N[C@@H](CCCNCCCCCNC(=O)CC[C@H](NC(=O)[C@H](CCCNC(=N)N)NC(=O)[C@@H]2CCCN2C(=O)[C@H](CCCNC(N)=O)NC(=O)[C@H](CC(N)=O)NC(=O)[C@H](CCC(N)=O)NC(=O)[C@H](Cc2ccc(Cl)cc2)NC(=O)[C@@H](Cc2ccc(OC)cc2)NC(=O)Cc2ccccc2)C(N)=O)C(=O)NCC(N)=O)NC(=O)[C@H](CC(N)=O)NC(=O)[C@H](CCC(N)=O)NC1=O` [Compound 45]: the EC50 was 0.8 nM and the Emax came out at 72%.

As to `CC[C@H](C)[C@@H]1NC(=O)[C@H](Cc2ccccc2)NC(=O)[C@@H](N)CSSC[C@@H](C(=O)N2CCC[C@H]2C(=O)N[C@@H](CCCNCCCCCNC(=O)CC[C@H](NC(=O)[C@H](CCCNC(=N)N)NC(=O)[C@@H]2CCCN2C(=O)[C@H](C)NC(=O)[C@H](CC(N)=O)NC(=O)[C@H](CCC(N)=O)NC(=O)[C@H](Cc2ccccc2)NC(=O)[C@@H](Cc2ccc(OC)cc2)NC(=O)Cc2ccccc2)C(N)=O)C(=O)NCC(N)=O)NC(=O)[C@H](CC(N)=O)NC(=O)[C@H](CCC(N)=O)NC1=O` [Compound 2], the EC50 worked out at 0.69 nM and the Emax is 52%.

For the origin of these results see US20160122386A1, “V1A RECEPTOR AGONISTS” (FERRING B.V., priority 2014, published 2016).
